PMC11714206, “Massively Parallel Screening of Toll/Interleukin‐1 Receptor (TIR)‐Derived Peptides Reveals Multiple Toll‐Like Receptors (TLRs)‐Targeting Immunomodulatory Peptides” (Advanced Science, 2024)

Molecular target: T1, MyD88^TIR (Homo sapiens, UniProt Q99836)
T1 construct: MyD88 (residues 148–296); 6xHis; made in house; host or cells: E. coli BL21 (DE3)
Assay: T‐Surf phage library (P8 and P3) selection against MyD88^TIR, four rounds, NGS read counts
Assay type: binding
Conditions: for Population: 4th round of selection against MyD88 TIR, share of NGS reads; for P3_MyD88 Rank (after) / P3_MyD88 Rank (before): P3 library; for P8_MyD88 Rank (after) / P8_MyD88 Rank (before): P8 library
Method: T‐Surf libraries were screened against the immobilized TIR domains of two major human TLR adaptor proteins, MAL^TIR and MyD88^TIR, allowing cross‐species selection of TIR‐binding motifs with 190 946 TIR‐derived peptides in a single binding assay (Scheme 1). Enriched phage pools from the fourth round of selection were analyzed using NGS after barcoding the peptide‐coding regions of the phage pools.
Phage display screening was performed by coating two wells of a 96‐well plate (Maxisorp, Thermo Fisher Scientific) with 100 µL of 5 µg mL^−1 TIR domains overnight; then, the coated wells were blocked with 200 µL of blocking buffer (0.2% BSA in PBS) and set aside for 1 h at 4 °C with gentle shaking. Next, 100 µL of the phage library was added to the wells and incubated for 1 h at room temperature (RT; 20 – 22 °C) with gentle shaking. The plate was washed four times with PBS containing 0.5% Tween‐20; the bound phages were eluted by adding 100 µL of 100 mM HCl to each well. The elute was neutralized with 10 µL of 1.0 M Tris‐HCl (pH 11.0). E. coli TG1 cells were grown to the log phase (A600 = ≈0.6), and 1 mL of the culture was incubated with 100 µL of the eluted phages for 30 min at 37 °C, with shaking at 200 rpm. Next, 1 µL of M13KO7 helper phages was added, followed by incubation for 45 min at 37 °C, with shaking. Subsequently, the cells were transferred to 25 mL of 2× yeast extract tryptone/carbenicillin/kanamycin medium and incubated overnight at 37 °C with shaking at 200 rpm. The amplified phages were precipitated with 20% PEG‐8000/2.5 M NaCl to be used for the next round of selection.
The naïve T‐Surf libraries in P8 and P3 and the enriched phage pools after four rounds were barcoded for NGS as previously described.^[ [59] ^] Briefly, 5 µL of the phage pool was used as a template for 20 cycles of a 50 µL PCR reaction using […] each of forward and reverse barcoded primers and PrimeSTAR Max DNA Polymerase. The PCR products were purified using Expin Gel SV (GeneAll). The NGS samples were quantified using qPCR, following the qPCR Quantification Protocol Guide (KAPA Library Quantification kits for Illumina Sequencing Platform), and qualified using the TapeStation High Sensitivity D1000 ScreenTape (Agilent Technologies). The indexed libraries were further sequenced by Macrogen (Seoul, Republic of Korea) using the NovaSeq platform (Illumina) with 100 bp paired‐end reads. The reads were demultiplexed by barcodes and filtered for an average Phred quality score of at least 30, followed by trimming the flanking consensus sequences using Cutadapt (version 2.3). Peptide sequence populations were analyzed according to the read counts.

[1] = P3_MyD88: rank by count after grouping
[2] = P3_MyD88: rank by count before grouping
[3] = P8_MyD88: rank by count after grouping
[4] = P8_MyD88: rank by count before grouping
[5] = P3_MyD88 pool: P3 T-Surf phage library
[6] = selection against MyD88 TIR, rank by count after grouping
[7] = selection against MyD88 TIR, rank by count before grouping
[8] = selection against MyD88, rank by count after grouping
[9] = selection against MyD88, rank by count before grouping
[10] = P8_MyD88: rank by NGS read count after grouping
[11] = P8_MyD88: rank by NGS read count before grouping
[12] = 4R selection against MyD88, rank after grouping
[13] = 4R selection against MyD88, rank before grouping
[14] = P8_MyD88 pool: P8 T-Surf phage library
[15] = selection against MyD88, rank after grouping
[16] = selection against MyD88, rank before grouping

T1 sequence (Q99836 148-296): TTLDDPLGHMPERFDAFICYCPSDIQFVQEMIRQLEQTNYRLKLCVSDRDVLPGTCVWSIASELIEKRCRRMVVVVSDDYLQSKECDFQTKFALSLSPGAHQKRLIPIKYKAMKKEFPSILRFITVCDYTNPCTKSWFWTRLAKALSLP

## SSFREGVWRLLEVSKK
[1]
  Rank (after): 151
[2]
  Rank (before): 3148

## DFRSHLIETFGRMFIN
[3]
  Rank (after): 465
[4]
  Rank (before): 2370

## SGFREGLWRLLELSKK
[5]
  Population: 0.00291%

## YTALTNSSFHTFLDND
[6]
  P3_MyD88 Rank (after): 219
[7]
  P3_MyD88 Rank (before): 1696

## DPQDREWFYERLVSLF
[6]
  P8_MyD88 Rank (after): 277
[7]
  P8_MyD88 Rank (before): 2957

## DPQGLAWFYERLVSLL
[3]
  Rank (after): 443
[4]
  Rank (before): 2664

## LGYHWVDWEDLLSIEE
[8]
  P8_MyD88 Rank (after): 730
[9]
  P8_MyD88 Rank (before): 3235

## ISFREGLWRLLELSKK
[5]
  Population: 0.00291%

## LGYHWIDWEYFVGIK
[10]
  Rank (after): 874
[11]
  Rank (before): 3264

## ASSSFALDQLSYFLSL
[3]
  Rank (after): 189
[4]
  Rank (before): 243

## IDDDHLYAALVQAGIL
[12]
  P8_MyD88 Rank (after): 639
[13]
  P8_MyD88 Rank (before): 3622

## FISDLYEALTRAGILA
[10]
  Rank (after): 964
[11]
  Rank (before): 1341

## YLRRSVFQTMLARRTE
[10]
  Rank (after): 899
[11]
  Rank (before): 2077

## LEANDSLFWDRLYY
[3]
  Rank (after): 403
[4]
  Rank (before): 1189

## SSFREGLWRLLEVSQK
[6]
  P3_MyD88 Rank (after): 199
[7]
  P3_MyD88 Rank (before): 3151

## YASSSWALNELLEILDAKETM
[3]
  Rank (after): 456
[4]
  Rank (before): 1901

## YSQHDVLWVKNFLSHI
[10]
  Rank (after): 1025
[11]
  Rank (before): 2122

## DPQDLEWLYERLVSLF
[3]
  Rank (after): 180
[4]
  Rank (before): 1108

## KEVEGWRDALYEAANLS
[8]
  P3_MyD88 Rank (after): 684
[9]
  P3_MyD88 Rank (before): 3620

## YASSSWALDELWNIF
[3]
  Rank (after): 167
[4]
  Rank (before): 193
[14]
  Population: 0.00617%

## WALDEVLKIQDDNETM
[15]
  P8_MyD88 Rank (after): 544
[16]
  P8_MyD88 Rank (before): 1423

## DSQSSLLKGEADLVGQ
[8]
  P3_MyD88 Rank (after): 736
[9]
  P3_MyD88 Rank (before): 2071

## VASHWALEELRMIMDF
[3]
  Rank (after): 160
[4]
  Rank (before): 177
[14]
  Population: 0.00771%

## WDFSGNIEQFWDRLYY
[8]
  P8_MyD88 Rank (after): 758
[9]
  P8_MyD88 Rank (before): 1570

## DHHMDLPRDTAIKPEILG
[12]
  P3_MyD88 Rank (after): 661
[13]
  P3_MyD88 Rank (before): 2060

## YTALTNSGCPTFCVIA
[1]
  Rank (after): 444
[2]
  Rank (before): 1694

## LVAHEISKKLKIFATM
[8]
  P3_MyD88 Rank (after): 709
[9]
  P3_MyD88 Rank (before): 2288

## SSFREGLWRLLKLSKK
[5]
  Population: 0.00349%

## WALDELLQILYARERF
[3]
  Rank (after): 448
[4]
  Rank (before): 1466

## DLQDLDWFYERLVSLL
[6]
  P8_MyD88 Rank (after): 206
[7]
  P8_MyD88 Rank (before): 2595

## KELVHVWSSKANSRVG
[12]
  P3_MyD88 Rank (after): 651
[13]
  P3_MyD88 Rank (before): 3662

## WDFASSTWWLRELLQIA
[6]
  P8_MyD88 Rank (after): 272
[7]
  P8_MyD88 Rank (before): 524

## LGYHWIDWEYFEGIAD
[10]
  Rank (after): 928
[11]
  Rank (before): 3268

## DVLYWALTEAGIRVFR
[3]
  Rank (after): 119
[4]
  Rank (before): 128
[14]
  Population: 0.015%

## DHHLDLPRGKAIKPEFW
[6]
  P3_MyD88 Rank (after): 241
[7]
  P3_MyD88 Rank (before): 951

## DPQELECLYERLFSQM
[12]
  P8_MyD88 Rank (after): 667
[13]
  P8_MyD88 Rank (before): 2991

## YAFTGQLNQYLVQRGV
[12]
  P3_MyD88 Rank (after): 623
[13]
  P3_MyD88 Rank (before): 1538

## DPRDLAWFYEVLLSRF
[12]
  P8_MyD88 Rank (after): 657
[13]
  P8_MyD88 Rank (before): 2618

## YLRLEVIWFWENRRYA
[15]
  P8_MyD88 Rank (after): 491
[16]
  P8_MyD88 Rank (before): 2075

## LGYHGIDWVYFGGIED
[15]
  P8_MyD88 Rank (after): 565
[16]
  P8_MyD88 Rank (before): 3316

## YAFTGHLHRYLVLRGA
[12]
  P3_MyD88 Rank (after): 630
[13]
  P3_MyD88 Rank (before): 1502
